In patent US20240269094A1, “Treatment of canine dermatitis and skin irritation” (priority 2023, published 2024):
“Also recorded” adds a separate entry of the source. Where two headings read alike, the source gives them in different places.

Experiments:
TRPA1 [1] = target: T1, TRPA1 (Homo sapiens, UniProt O75762); conditions: Johnson et al. 2018; applicant could not repeat; cited from earlier work
T1 construct: expressed in transfected cells

TRPA1 [2] = target: T1, TRPA1; experiment: Bioassay in cells transfected with TRPA1 (FIG. 4); assay type: cell-based
Excerpt: (§1) FIG. 4 Bioassay of FEMA 4557 (labeled as BUDA on the graph) in TRPM8 and TRPA1. Data from the laboratory of Prof. Seok-Yong Lee at Duke University.
(§2) FIG. 4 Bioassay of FEMA 4557 (labeled as BUDA) in TRPM8 and TRPA1. Data of Prof. Seok-Yong Lee at Duke University.

[3] = Comparison of classes of cooling agents for applications on the canine skin (grades); set-up: species or system dog; key: A = excellent; B = average; C = poor; F = does not work; conditions: grade
Excerpt: Here are comments on grades assigned to specific classes of cooling agents (Table 3). […] The p-menthane carboxamides cover a wide range of compounds, but they are difficult for skin formulation to achieve a long duration of action. Menthol is short-acting and irritating, especially when it is near the ocular surface. The 1-dialkylphosphorylalkane known as DIPA1-7 (Cryosim-1, 1-dialkylphosphorylheptane) is an excellent skin agent, but costs are high for dermatological applications.

philtrum skin = experiment: Philtrum (skin) bioassay of cooling; assay type: in vivo, human
Protocol: FIG. 5. The philtrum bioassay. Cooling agents, prepared as a or in solution are applied to the philtrum skin. Cooling intensity is rated on a scale of 0 to 3, with 0=no changes in sensation, 1=a slight feeling of coolness, cold or tingling, 2=a clearcut feeling of coolness of cold, and 3=a robust feeling of coolness of cold. The duration of cooling was recorded until two zeroes were measured 10 min apart.
TRPM8 EC50 Receptor Assay. […] A receptor assay is a standard tool and can be done quickly. For example, in a 384-plate assay, you can easily test 10 compounds and get dose-response data. For a chemical agonist, an in vitro TRPM8 assay generates an EC50 (median effective concentration). But the quantitative correlation between the EC50 on TRPM8 and cooling sensation was vague. That is, the science was “roughly” predictive, but there was considerable uncertainty for each agonist. […] Philtrum (Skin) Assay. For cooling sensations on the skin, it is necessary to test the substance on the skin. Wei proposed the use of the skin on the philtrum as a test site for cooling activity of chemicals (FIG. 5). The test substance is dissolved in a carrier, such as solvent, gel, or ointment and applied to the philtrum, a surface area of […]. The subject records sensations on the philtrum and environs as:
The subject is given a form to record observations and instructions to mark sensations on the philtrum and environs as: 0=no changes in sensation, 1=a slight feeling of coolness, cold, or tingling, 2=a clearcut feeling of coolness or cold, and 3=a robust feeling of coolness and cold.
The intervals for measurements are usually at 5, to 15 min after application, until two successive zeros are obtained. The philtrum application site is the midline groove above the upper lip border and vermilion. The gel is placed on the philtrum with a cotton-tipped applicator up to the nasolabial folds and sometimes, but not deliberately, on the lower nostrils (subnasale). Cold receptors densely innervate the philtrum skin (FIG. 5), second only to the surfaces of the eyeball and anogenitalia. The lips also have a high density of “cold spots.” Hensel et al. mapped the cold spots on the human face (cited in Dhaka et al., 2008). In animals such as the rat the mystacial pad (nose pad with vibrissae) is abundantly labeled with TRPM8-fibers. “Cold Points” linked to single-unit neuronal discharges can be measured in experimental animals. Wei has direct experience in such experiments (Poree et al., 1989).
Dip a cotton-tipped applicator (Puritan Cotton-tipped applicators, or Q-Tips) into a reservoir bottle containing the liquid or semi-liquid (gel) test substance. The composition adhering to the cotton (about 0.1 mL) is put on the skin. The philtrum site is shown in a cartoon. A subject can practice the method in front of a mirror with a high-intensity light source. Results for test on the philtrum are in Table 8 and FIG. 5. See data in FIG. 6. Cooling agents, prepared as an 8% wt./vol. gel, was tested topically on the philtrum skin assay. The duration of cooling was recorded (min on y-axis). The startling activity of FEMA 4557, cooling for ˜3 hr, was unexpected and surprising. FEMA 3784 is also known as Cool 10 or menthoxypropanediol. […]

TRPM8 [4] = target: T2, TRPM8 (Homo sapiens, UniProt Q7Z2W7); experiment: Bioassay of FEMA 4557 in TRPM8 (laboratory of Prof. Seok-Yong Lee, FIG. 4); assay type: cell-based
T2 sequence (Q7Z2W7 whole entry, species assumed): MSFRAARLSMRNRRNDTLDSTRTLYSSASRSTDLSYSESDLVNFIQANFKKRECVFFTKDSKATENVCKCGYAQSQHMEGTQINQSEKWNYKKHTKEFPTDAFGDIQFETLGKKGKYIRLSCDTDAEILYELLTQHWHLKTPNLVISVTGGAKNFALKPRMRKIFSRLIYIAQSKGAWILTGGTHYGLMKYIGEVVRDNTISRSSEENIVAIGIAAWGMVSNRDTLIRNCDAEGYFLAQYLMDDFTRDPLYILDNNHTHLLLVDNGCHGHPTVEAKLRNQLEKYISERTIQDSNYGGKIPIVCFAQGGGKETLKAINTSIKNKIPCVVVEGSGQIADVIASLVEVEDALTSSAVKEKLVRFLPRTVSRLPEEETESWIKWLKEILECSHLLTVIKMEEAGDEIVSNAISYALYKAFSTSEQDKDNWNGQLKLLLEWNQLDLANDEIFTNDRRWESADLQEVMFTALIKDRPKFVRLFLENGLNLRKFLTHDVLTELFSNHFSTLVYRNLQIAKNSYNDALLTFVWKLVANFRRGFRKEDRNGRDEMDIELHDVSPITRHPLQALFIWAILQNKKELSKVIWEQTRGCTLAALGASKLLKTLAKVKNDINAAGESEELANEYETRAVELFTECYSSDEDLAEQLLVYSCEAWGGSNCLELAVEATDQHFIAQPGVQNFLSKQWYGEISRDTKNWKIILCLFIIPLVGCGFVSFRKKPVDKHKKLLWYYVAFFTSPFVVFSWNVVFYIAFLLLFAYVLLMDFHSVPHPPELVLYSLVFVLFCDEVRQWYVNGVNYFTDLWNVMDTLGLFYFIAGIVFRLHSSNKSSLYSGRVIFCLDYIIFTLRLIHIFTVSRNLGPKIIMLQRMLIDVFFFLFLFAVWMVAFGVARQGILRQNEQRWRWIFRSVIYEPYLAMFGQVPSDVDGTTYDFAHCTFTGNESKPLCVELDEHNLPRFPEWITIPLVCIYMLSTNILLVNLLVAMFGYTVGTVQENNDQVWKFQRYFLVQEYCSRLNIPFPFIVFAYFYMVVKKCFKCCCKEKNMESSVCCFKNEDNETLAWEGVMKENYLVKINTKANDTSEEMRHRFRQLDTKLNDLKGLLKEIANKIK
Excerpt: as §1, §2

[5] = test system: canine dermatitis, scratching and licking; experiment: Topical treatment of canine skin irritation (case studies); assay type: in vivo, dog; conditions: 32% wt/vol liquid in 1,2-propanediol, 4% ethanol, 4% l-menthol
TRPM8 [6] = target: T2, TRPM8; set-up: EC50; other: Johnson, 2.2/2.2; conditions: Ref. 5 (Johnson et al., 2018); cited from earlier work
oral cavity = conditions: 100 ppm in 5% sucrose; scale of 0 to 9 units; Johnson, 2018; cited from earlier work
tongue = experiment: Oral cavity screen: 15 mg of crystals on the dorsal surface of the tongue; assay type: in vivo, human
Protocol: In this discovery, sensory activity in the oral cavity was the first screen. The goal was to identify candidates producing unusual sensations. Test agents, prepared as 15 mg of white crystals, were placed on the dorsal surface of the tongue. The chemical structures and identifying characteristics are in Table 1. […] Related cooling agents were not freezing cold, except for WS-23.

[7] = test system: canine dermatitis, scratching and licking; experiment: Topical treatment of canine skin irritation (case studies); assay type: in vivo, dog
Protocol: The Applicant gave the dog's owner an airless pump dispenser containing 8% wt/vol of FEMA 4557 dispersed in 4 mg/ml of carbapol 980, formulated with 1% ethanol and 1% menthol, and instructed him to apply the gel to the skin of the dog's belly and groin.
A twelve-year-old West Highland Terrier had periodic episodes of seasonal skin allergy. […] The owner of the dog, who had access to a pharmacy, applied nystatin ointment and a potent skin steroid cream containing […].
Next, a 20% wt/vol FEMA 4557 solution, dissolved in propylene glycol, was applied to the interdigital folds of the paws with a cotton-tipped applicator (FIG. 9).

[8] = 8% wt/vol gel with ethanol, 1,2-propanediol, carbomer and dispersing agent or 0.2% DIPA-1-7 initiator
[9] = topical liquid or gel, Table 11

T1 sequence (O75762 whole entry, species assumed): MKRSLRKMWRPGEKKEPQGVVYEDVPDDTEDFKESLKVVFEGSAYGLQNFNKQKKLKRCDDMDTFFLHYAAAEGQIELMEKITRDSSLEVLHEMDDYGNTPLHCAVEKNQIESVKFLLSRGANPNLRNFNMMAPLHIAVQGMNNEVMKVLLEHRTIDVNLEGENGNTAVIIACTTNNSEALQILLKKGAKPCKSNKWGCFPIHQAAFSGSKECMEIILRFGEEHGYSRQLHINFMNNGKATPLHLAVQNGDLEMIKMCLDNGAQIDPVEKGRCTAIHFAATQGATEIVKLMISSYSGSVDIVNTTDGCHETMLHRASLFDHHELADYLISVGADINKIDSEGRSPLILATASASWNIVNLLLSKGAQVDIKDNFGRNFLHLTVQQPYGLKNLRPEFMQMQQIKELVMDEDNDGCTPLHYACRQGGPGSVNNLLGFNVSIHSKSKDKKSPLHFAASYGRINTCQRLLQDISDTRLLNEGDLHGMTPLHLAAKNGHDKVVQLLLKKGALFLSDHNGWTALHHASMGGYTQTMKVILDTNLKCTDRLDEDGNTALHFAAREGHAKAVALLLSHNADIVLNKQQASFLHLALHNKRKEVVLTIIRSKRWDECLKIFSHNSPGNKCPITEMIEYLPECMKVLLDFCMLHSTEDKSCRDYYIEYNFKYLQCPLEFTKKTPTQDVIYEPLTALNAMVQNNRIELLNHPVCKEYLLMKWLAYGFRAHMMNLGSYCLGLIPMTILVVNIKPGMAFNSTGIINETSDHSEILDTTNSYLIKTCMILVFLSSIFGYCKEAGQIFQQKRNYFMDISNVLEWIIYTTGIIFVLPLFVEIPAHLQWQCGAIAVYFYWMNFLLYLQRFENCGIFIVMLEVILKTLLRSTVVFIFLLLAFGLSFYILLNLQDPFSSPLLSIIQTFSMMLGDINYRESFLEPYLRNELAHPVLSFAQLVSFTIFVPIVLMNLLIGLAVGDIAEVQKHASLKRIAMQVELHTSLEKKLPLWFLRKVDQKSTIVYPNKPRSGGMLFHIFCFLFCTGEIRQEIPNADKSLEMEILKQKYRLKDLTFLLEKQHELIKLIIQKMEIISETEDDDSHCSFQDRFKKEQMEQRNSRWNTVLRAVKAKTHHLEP

For `CCNC(=O)C(CC)(C(C)C)C(C)C` [FEMA 4557, N-ethyl-2,2-diisopropylbutanamide], the “activity on TRPA1 as reported in literature” value (TRPA1 [1]) is listed as “activates TRPA1”, the “activity on TRPA1” value (TRPA1 [2]) is listed as “absence of activity; also recorded: not active” and the “Absence of Irritancy” value [3] is listed as “A”. The Potency [3] was “C”, the “Rapid Onset” value [3] was “B” and the “Safety in Use” value [3] was “A”. For the same compound, the “Sufficient Duration” value [3] was “A+”, the “average time of cooling” value (philtrum skin; 8% concentration) was no less than 175 min and the Duration of cooling (philtrum skin; 8% wt./vol. gel, FIG. 6) was roughly 3 h. The “Comments: quality of sensation on philtrum skin” value (philtrum skin; 8% wt/vol) was “icy cold sensations, prolonged cooling,”, the “duration of effect of topical gel” value (philtrum skin; [8]) was no less than 3 h and the “onset of topical gel” value (philtrum skin; [8]) was “less than 3 min”. For the same compound, the Duration of cooling (philtrum skin; 8% wt/vol on philtrum) was 180+ min, the total therapeutic duration (philtrum skin; 16 to 32%) was “at least 6 hr” and the “after effect: further cooling on the skin” value (philtrum skin; 16 to 32%, revealed by warm towel) was 3 h. For the same compound, the “cooling duration compared to menthol” value (philtrum skin; >180/25) was greater than 7 fold, the Duration-Skin (philtrum skin; Wei, Table 6, see FIG. 6) was 3+ Hours and the Duration of cooling (philtrum skin; concentrations ≥5%, FIG. 7) was no less than 1 h. For the same compound, the “skin tissue irritation or inflammation” value (philtrum skin; concentrations ≥5%, up to 50% wt/vol) was “not observed or detected”, the “average time of cooling” value (philtrum skin; first concentration of '2.4 and 8%' (2%)) was 50 min and the “effective concentration for topical activity on the skin” value (philtrum skin; in vivo) was no less than 5%. The “average time of cooling” value (philtrum skin; second concentration of '2.4 and 8%' (4%)) was 95 min, the Duration of cooling (philtrum skin; single dose of the 16 to 32% solution) was roughly 3 h and the “sensation on the philtrum” value (philtrum skin; solution at ≥64%) was “pleasant and robust cool”. For the same compound, the “adverse sensations of stinging cold” value (philtrum skin; solution at ≥64% on the philtrum) was “No cold stinging sensations were felt”, the “tolerability on the skin” value (philtrum skin; solutions of ≥32%) was “well-tolerated” and the Onset (philtrum skin; [9]) was roughly 10 min. For the same compound, the “EC50 potency relative to l-menthol” value (TRPM8 [4]; FIG. 4) was “about 1/30”, the EC50 (TRPM8 [4]; FIG. 4, estimated) was 410 µM and the “activity on TRPM8 as % of the activity of l-menthol” value (TRPM8 [4]; further experiments by the applicant) was 10%. The “potency relative to menthol” value (TRPM8 [4]; tests by Prof Lee (FIG. 4)) was less than 0.1, the “effect on scratching and rashes” value [5] was “effective for scratching caused by bites of ectoparasites and rashes caused by yeast infection” and the EC50 (TRPM8 [6]) was 1.6 µM. For the same compound, the “Cooling Intensity Oral Cavity Scaled” value (oral cavity) was 3.3, the “Effects of 15 mg on tongue: duration” value (tongue) was greater than 35 min and the “Effects of 15 mg on tongue: sensation” value (tongue) was “stinging, freezing, and painful cold on the throat; also recorded: stinging, painful freezing cold in throat”. The “Effects of 15 mg on tongue: sensation” value (tongue; listed as 4557) was “stinging, painful cold”, the scratching and licking ([7]; Study 2, Dachshund, 8% wt/vol gel on belly and groin, within one day) was “scratching and licking were reduced” and the redness and swelling ([7]; Study 2, after three days of daily application of 8% gel) was “the redness and swelling disappeared”. The licking of paws ([7]; Study 3, 20% wt/vol solution in propylene glycol on interdigital folds) was “stopped licking its front paws”, the scratching ([7]; Study 3, West Highland Terrier, 8% gel on groin, hindquarters, perianal area) was “stopped the scratching” and the “signs of skin discomfort” value ([7]; Study 3, after five days of treatment) was “All signs of skin discomfort disappeared”. The “anti-itch effect of topical formulations” value ([7]; topical gel or solution, insect bites, dermatitis, allergies) was “effectively treated the itch; also recorded: anti-itch effects on flea bites and other skin” and the Side-effects [7, 9] was “None observed”.
